Data taken from patent publication US6855843B2, “Inhibitors of α4 mediated cell adhesion” (Tanabe Seiyaku Co., Ltd., priority 1998, dated 2005).

Biological target: T1, α4β7 (adhesion of RPMI cells to CS-1) (Homo sapiens, UniProt P13612+P26010)
T1 construct: endogenous in cells
T1 sequence (P13612 34-1032): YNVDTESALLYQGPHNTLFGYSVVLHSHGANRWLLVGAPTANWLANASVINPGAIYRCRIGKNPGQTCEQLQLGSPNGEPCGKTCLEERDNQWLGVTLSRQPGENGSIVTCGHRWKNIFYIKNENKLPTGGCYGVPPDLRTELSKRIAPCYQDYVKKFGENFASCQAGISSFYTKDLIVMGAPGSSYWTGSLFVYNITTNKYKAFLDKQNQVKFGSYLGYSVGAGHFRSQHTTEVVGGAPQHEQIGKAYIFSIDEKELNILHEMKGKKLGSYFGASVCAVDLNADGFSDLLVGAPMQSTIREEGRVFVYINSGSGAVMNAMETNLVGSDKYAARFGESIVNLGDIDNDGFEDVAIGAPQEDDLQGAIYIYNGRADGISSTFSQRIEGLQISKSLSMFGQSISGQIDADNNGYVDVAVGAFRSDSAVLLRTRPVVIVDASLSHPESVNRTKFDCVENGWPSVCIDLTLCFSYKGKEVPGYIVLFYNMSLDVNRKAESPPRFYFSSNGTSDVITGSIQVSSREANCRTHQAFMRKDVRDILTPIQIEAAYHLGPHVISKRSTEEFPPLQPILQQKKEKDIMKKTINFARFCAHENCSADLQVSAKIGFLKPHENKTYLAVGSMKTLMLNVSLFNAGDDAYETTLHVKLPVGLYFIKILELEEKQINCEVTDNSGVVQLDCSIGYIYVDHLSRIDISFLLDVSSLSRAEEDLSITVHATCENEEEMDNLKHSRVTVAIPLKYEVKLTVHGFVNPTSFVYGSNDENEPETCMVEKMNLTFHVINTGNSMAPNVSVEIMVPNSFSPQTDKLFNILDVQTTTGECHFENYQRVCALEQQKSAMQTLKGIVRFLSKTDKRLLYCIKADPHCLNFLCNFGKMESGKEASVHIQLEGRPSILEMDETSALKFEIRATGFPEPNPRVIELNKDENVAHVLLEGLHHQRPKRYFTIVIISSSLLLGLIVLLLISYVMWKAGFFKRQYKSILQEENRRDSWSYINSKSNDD
T1 sequence (P26010 20-798): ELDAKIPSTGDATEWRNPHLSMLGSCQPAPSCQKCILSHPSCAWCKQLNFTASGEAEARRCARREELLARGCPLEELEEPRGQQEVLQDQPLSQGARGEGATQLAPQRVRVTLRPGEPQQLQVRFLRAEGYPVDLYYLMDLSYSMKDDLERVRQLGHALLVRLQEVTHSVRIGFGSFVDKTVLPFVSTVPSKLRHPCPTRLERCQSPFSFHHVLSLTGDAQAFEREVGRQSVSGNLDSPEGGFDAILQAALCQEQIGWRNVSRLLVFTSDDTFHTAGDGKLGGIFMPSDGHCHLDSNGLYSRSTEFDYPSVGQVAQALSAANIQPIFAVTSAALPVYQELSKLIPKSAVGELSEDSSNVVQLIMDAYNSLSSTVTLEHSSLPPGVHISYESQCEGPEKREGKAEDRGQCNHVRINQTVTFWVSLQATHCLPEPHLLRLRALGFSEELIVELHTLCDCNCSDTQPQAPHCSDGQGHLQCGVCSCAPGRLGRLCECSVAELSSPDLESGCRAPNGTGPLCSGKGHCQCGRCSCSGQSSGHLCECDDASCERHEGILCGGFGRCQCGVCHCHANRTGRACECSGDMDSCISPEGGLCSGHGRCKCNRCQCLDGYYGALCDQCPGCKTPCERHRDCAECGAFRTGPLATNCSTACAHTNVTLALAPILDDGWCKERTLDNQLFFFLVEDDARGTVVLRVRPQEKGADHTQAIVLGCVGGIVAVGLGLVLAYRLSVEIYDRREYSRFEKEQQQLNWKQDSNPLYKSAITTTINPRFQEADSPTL
Test: RPMI-CS-1 cell adhesion assay
Type: cell-based
Settings: adhesion of RPMI B-cell line (expresses α4β7) to CS-1 peptide coated microwells; read-out: RPMI-CS-1 IC50 value range
Experimental: RPMI-CS-1 Cell Adhesion Assay:
The test compounds were added in increasing concentrations to RPMI cells and then the cell-compound mixture was added to CS-1 coated microwells. The plates were incubated, washed and the percentage of attached cells were quantitated.
The CS-1 derived peptide, […], and the scrambled control peptide, […], were synthesized at Tanabe Research Laboratories, USA, Inc. on a Beckman 990 synthesizer using t-Boc methodology. […] Microtiter plates were coated with 20 μg/ml human serum albumin (HSA) for 2 hours at room temperature, washed once with PBS and derivatized with 10 μg/ml SPDP for 1 hour. […] Unbound peptide was removed from the plates by washing with PBS. To block non-reacted sites, the plates were coated with 100 μl of a 2.5 mg/ml BSA solution in PBS for one hour at 37° C. 100 μl of RPMI cells (2.5×10^6 cells/ml) in Dulbecco's Modified Eagles Medium (DMEM) plus 0.25% ovalbumin were added to peptide coated dishes and incubated for 1 hour at 37° C. […] To do this, the enzyme substrate p-nitrophenyl-N-acetyl-β-D-glucoseaminide is dissolved at 7.5 mM in 0.1 M citrate buffer pH 5 and then mixed with an equal volume of 0.5% Triton X100. 50 μl of the substrate solution was added to the plates and the plates were incubated at 37° C. for 60 minutes.
In this assay, IC50 value ranges (μM) are depicted by A, B, C and D. These ranges as follows. D>5≧C>1≧B>0.3≧A

Row | Compound | IC50 [nM]
1 | COc1ccccc1-c1ccc(C[C@H](NC(=O)c2ccccc2NC(C)=O)C(=O)O)cc1 [Example 105] | > 5000
2 | COC(=O)[C@H](Cc1ccc(-c2cccs2)cc1)NC(=O)c1c(Cl)cccc1Cl [Example 4A, N-(2,6-Dichlorobenzoyl)-4-(2-thienyl)-L-phenylalanine methyl ester] | 1000 to 5000
3 | CNC(=O)c1ccccc1-c1ccc(C[C@H](NC(=O)c2c(Cl)cccc2Cl)C(=O)O)cc1 [Example 54, N-(2,6-Dichlorobenzoyl)-4-[2-(N-methylcarbamoyl)phenyl]-L-phenylalanine] | 300 to 1000
4 | COc1ccccc1-c1ccc(C[C@H](NC(=O)c2ccc(N)cc2Cl)C(=O)O)cc1 [Example 63, N-(4-Amino-2-chlorobenzoyl)-4-(2-methoxyphenyl)-L-phenylalanine] | 300 to 1000
5 | COc1ccccc1-c1ccc(C[C@H](NC(=O)c2ccc(Cl)cc2Cl)C(=O)O)cc1 [Example 84] | 1000 to 5000
6 | O=C(O)C=Cc1ccccc1-c1ccc(C[C@H](NC(=O)c2c(Cl)cccc2Cl)C(=O)O)cc1 (mixture of isomers) [Example 49, N-(2,6-Dichlorobenzoyl)-4-[2-(2-carboxyethenyl)phenyl]-L-phenylalanine] | 300 to 1000
7 | N-(2,6-Dichlorobenzoyl)-4-(2,6-dimethoxyphenyl)-L-phenylalanine 2-(dimethylamino)ethyl ester [Example 271] | < 300
8 | COc1ccccc1-c1ccc(C[C@H](NC(=O)c2cnccn2)C(=O)O)cc1 [Example 103] | > 5000
9 | COc1ccccc1-c1ccc(C[C@H](NC(=O)[C@H](C)c2ccccc2)C(=O)O)cc1 [Example 78] | 300 to 1000
10 | COc1ccccc1-c1ccc(C[C@H](NC(=O)[C@@H](C)c2ccccc2)C(=O)O)cc1 [Example 2, N-[(S)-2-Phenylpropionyl]-4-(2-methoxyphenyl)-L-phenylalanine] | 1000 to 5000
11 | O=C(O)c1ccc(C(=O)N[C@@H](Cc2ccc(-c3ccccc3O)cc2)C(=O)O)cc1 [Example 81] | > 5000
12 | COc1cccc(OC)c1-c1ccc(C[C@H](NC(=O)c2c(Cl)cccc2Cl)C(=O)NO)cc1 [Example 268, N-(2,6-dichlorobenzoyl)-4-(2,6-dimethoxyphenyl)-L-phenylalanine N-hydroxyamide] | 1000 to 5000
13 | CC(=O)NS(=O)(=O)c1ccccc1-c1ccc(C[C@H](NC(=O)c2c(Cl)cccc2Cl)C(=O)O)cc1 [Example 19, N-(2,6-Dichlorobenzoyl)-4-[2-(N-acetylsulfamoyl)phenyl]-L-phenylalanine] | 1000 to 5000
14 | Cc1ccccc1-c1ccc(C[C@H](NC(=O)c2c(Cl)cccc2Cl)C(=O)O)cc1 [Example 112] | 300 to 1000

Further lines, results first:

Row | IC50 [nM] | Compound
15 | < 300 | COc1ccccc1-c1ccc(C[C@H](NC(=O)c2ccc(NC(N)=O)cc2Cl)C(=O)O)cc1 [Example 69, N-(2-Chloro-4-ureidobenzoyl)-4-(2-methoxyphenyl)-L-phenylalanine]
16 | < 300 | CCOc1ccc2c(c1-c1ccc(C[C@H](NC(=O)c3c(Cl)cccc3Cl)C(=O)O)cc1)OCO2 [Example 237, N-(2,6-Dichlorobenzoyl)-4-(2,3-methylenedioxy-6-ethoxyphenyl)-L-phenylalanine]
17 | < 300 | COc1ccccc1-c1ccc(C[C@H](NC(=O)c2ccc(NS(=O)(=O)c3ccc(F)cc3)cc2Cl)C(=O)O)cc1 [Example 189, N-[2-Chloro-4-[[(4-fluorophenyl)sulfonyl]amino]benzoyl]-4-(2-methoxyphenyl)-L-phenylalanine]
18 | < 300 | COc1cccc(OC)c1-c1ccc(C[C@H](NC(=O)c2c(Cl)cc(-c3ccn[nH]3)cc2Cl)C(=O)O)cc1 [Example 304, N-[4-(5-Pyrazolyl)-2,6-dichlorobenzoyl)-4-(2,6-dimethoxyphenyl)-L-phenylalanine]
19 | < 300 | COc1cc(OCc2ccsc2)cc(OC)c1-c1ccc(C[C@H](NC(=O)c2c(Cl)cccc2Cl)C(=O)O)cc1 [Example 220, N-(2,6-Dichlorobenzoyl)-4-[2,6-dimethoxy-4-(3-thienylmethoxy)phenyl]-L-phenylalanine]
20 | < 300 | COc1cc(C#N)c(-c2ccc(C[C@H](NC(=O)c3c(Cl)cccc3Cl)C(=O)O)cc2)c(OC)c1 [Example 142]
21 | < 300 | COc1ncnc(OC)c1-c1ccc(C[C@H](NC(=O)c2c(Cl)cccc2Cl)C(=O)O)cc1 [Example 144]
22 | < 300 | COc1ccccc1-c1ccc(C[C@H](NC(=O)c2cc(NS(=O)(=O)C(F)(F)F)ccc2Cl)C(=O)O)cc1 [Example 180, N-[2-Chloro-5-[(trifluoromethanesulfonyl)amino]-benzoyl]-4-(2-methoxyphenyl)-L-phenylalanine]
23 | < 300 | COc1cccc(OC)c1-c1ccc(C[C@H](NC(=O)c2c(Cl)cc(-c3ccccn3)cc2Cl)C(=O)O)cc1 [Example 312]
24 | < 300 | COc1cc(OCc2ccccc2)cc(OC)c1-c1ccc(C[C@H](NC(=O)c2c(Cl)cccc2Cl)C(=O)O)cc1 [Example 350]
25 | < 300 | O=C(O)COc1ccccc1-c1ccc(C[C@H](NC(=O)c2c(Cl)cccc2Cl)C(=O)O)cc1 [Example 32, N-(2,6-Dichlorobenzoyl)-4-[2-(carboxymethoxy)-phenyl]-L-phenylalanine]
26 | < 300 | NS(=O)(=O)c1ccccc1-c1ccc(C[C@H](NC(=O)c2c(Cl)cccc2Cl)C(=O)O)cc1 [Example 17, N-(2,6-Dichlorobenzoyl)-4-(2-sulfamoylphenyl)-L-phenylalanine]
27 | < 300 | COc1ccccc1-c1ccc(C[C@H](NC(=O)c2ccc(O)cc2Cl)C(=O)O)cc1 [Example 209]
28 | < 300 | CNC(=S)Nc1ccc(C(=O)N[C@@H](Cc2ccc(-c3ccccc3OC)cc2)C(=O)O)c(Cl)c1 [Example 70, N-[2-Chloro-4-(3-methylthioureido)benzoyl]-4-(2-methoxyphenyl)-L-phenylalanine]
29 | < 300 | CCN(CC)Cc1cc(OC)c(-c2ccc(C[C@H](NC(=O)c3c(Cl)cccc3Cl)C(=O)O)cc2)c(OC)c1 [Example 132]
30 | < 300 | COc1cc(CN2CCCC2)cc(OC)c1-c1ccc(C[C@H](NC(=O)c2c(Cl)cccc2Cl)C(=O)O)cc1 [Example 243]
31 | < 300 | COc1cccc(OC)c1-c1ccc(C[C@H](NC(=O)c2c(Cl)cc(-c3c(C)noc3C)cc2Cl)C(=O)O)cc1 [Example 309]
32 | < 300 | COc1cc(O)cc(OC)c1-c1ccc(C[C@H](NC(=O)c2c(Cl)cccc2Cl)C(=O)O)cc1 [Example 346, N-(2,6-Dichlorobenzoyl)-4-(2,6-dimethoxy-4-hydroxyphenyl)-L-phenylalanine]
